Laboratory results from patent US10064839B2, “Methods of treating liver diseases” (Zafgen, Inc., priority 2012, dated 2018).
In brackets after ≈: the same amount, converted by molar mass.

Assays:
72 receptors and enzymes = experiment: CEREP screen; details: at 10 μM across 72 receptors and enzymes
MetAP1 = MetAP1 (Homo sapiens, UniProt P53582); experiment: MetAP1 IC50; type: biochemical; details: second value of the cell; read-out: MetAP2/MetAP1 IC50 (nM): MetAP1
[1] = Plasma protein binding, human; type: in vitro ADME; details: read-out: Plasma protein binding (h/r/m, %): h (converted)
[2] = i.v. and p.o. exposure study, dog; type: in vivo; details: plasma
Procedure: (§1) Mouse, rat and dog studies were conducted to assess i.v. and p.o. (oral) exposure.

recombinant human MetAP2 = biological target: T1, recombinant human MetAP2 (Homo sapiens, UniProt P50579); experiment: Recombinant human MetAP2 inhibition assay (MAS substrate, Amplex red fluorescence); type: biochemical; details: first value of the cell; read-out: MetAP2/MetAP1 IC50 (nM): MetAP2
T1 construct: made in house; host or cells: Sf9 insect cells
T1 sequence (P50579 whole entry): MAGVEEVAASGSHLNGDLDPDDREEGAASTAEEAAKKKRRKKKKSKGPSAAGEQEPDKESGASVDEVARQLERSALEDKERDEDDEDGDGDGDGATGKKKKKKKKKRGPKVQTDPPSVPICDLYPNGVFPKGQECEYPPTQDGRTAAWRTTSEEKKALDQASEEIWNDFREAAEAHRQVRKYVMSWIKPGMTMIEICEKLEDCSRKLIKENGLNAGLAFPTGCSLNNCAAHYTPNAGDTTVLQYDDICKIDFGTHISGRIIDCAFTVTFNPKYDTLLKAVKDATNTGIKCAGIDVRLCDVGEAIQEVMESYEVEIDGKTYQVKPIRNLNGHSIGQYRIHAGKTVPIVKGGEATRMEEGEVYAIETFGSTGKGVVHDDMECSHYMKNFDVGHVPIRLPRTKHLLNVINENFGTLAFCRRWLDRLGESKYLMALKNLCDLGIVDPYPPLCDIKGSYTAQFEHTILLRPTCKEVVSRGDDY
Procedure: Compounds are tested for their capacity to inhibit recombinant human MetAP2 activity using the following assay.
Human recombinant MetAP2 expressed in Sf9 cells followed by affinity purification and EDTA treatment to remove endogenous active site cation was dialysed against MnCl2 to produce the manganese enzyme used in the assay. The assay was carried out for 30 minutes at 25° C. in 50 mM HEPES buffer containing 100 mM NaCl, pH 7.5 the presence of 0.75 mM Methionine-Alanine-Serine (MAS) substrate and 50 µg/ml amino acid oxidase using a dilution of purified MetAP2 giving >3-fold signal: noise. Cleavage of the substrate by MetAP2 and oxidation of free methionine by amino acid oxidase was detected and quantified using fluorescence generated by Amplex red (10-acetyl-3,7-dihydroxyphenoxazine) in combination with horseradish peroxidase which detects H2O2 released during the oxidation step. The fluorescent signal was detected using a multiwell fluorimeter. Compounds were diluted in DMSO prior to addition to assay buffer, the final DMSO concentration in the assay being 1%.
IC50 values are calculated using the XLfit software package (version 2.0.5).

CYP (isoform not given) = experiment: CYP IC50, HLM; type: in vitro ADME; details: human, human liver microsomes
[3] = i.v. and p.o. exposure study, rat; type: in vivo
Procedure: as §1

[4] = Plasma protein binding, mouse; type: in vitro ADME; details: read-out: Plasma protein binding (h/r/m, %): m
CYP3A4 = CYP3A4 (Homo sapiens, UniProt P08684); experiment: CYP3A4 inhibition with pre-incubation; type: in vitro ADME; details: footnote to CYP IC50, HLM
Sequence of CYP3A4 (P08684 whole entry): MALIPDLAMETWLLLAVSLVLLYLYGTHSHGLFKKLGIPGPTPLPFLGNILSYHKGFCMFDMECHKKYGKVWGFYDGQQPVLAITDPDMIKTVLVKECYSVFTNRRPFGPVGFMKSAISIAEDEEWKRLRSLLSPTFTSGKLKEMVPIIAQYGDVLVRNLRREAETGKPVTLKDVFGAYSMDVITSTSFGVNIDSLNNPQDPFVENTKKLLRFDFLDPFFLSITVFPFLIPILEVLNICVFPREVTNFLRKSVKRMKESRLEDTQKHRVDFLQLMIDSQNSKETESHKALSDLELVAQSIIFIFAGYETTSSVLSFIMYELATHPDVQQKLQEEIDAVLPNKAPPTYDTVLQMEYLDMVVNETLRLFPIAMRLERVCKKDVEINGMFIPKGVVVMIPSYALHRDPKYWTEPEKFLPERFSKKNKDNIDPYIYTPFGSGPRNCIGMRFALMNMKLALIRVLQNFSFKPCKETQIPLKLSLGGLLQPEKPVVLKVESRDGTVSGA

HT1080 = HT1080 EC50; type: cell-based; details: Homo sapiens, HT-1080; second of two values 28/8, key not given
[5] = test system: Diet induced obese (DIO) C57BL6 mice; experiment: Diet induced obese mouse study of compound A; type: in vivo
Procedure: Diet induced obese (DIO) C57BL6 mice were provided with varying doses of compound A and fumagillin (fum). Tissue biomarkers in peri-renal fat, mesenteric fat and the liver were measured.
(FIG. 3). Decrease in plasma insulin in mice, after once or twice a day administration of compound A vs. vehicle is also observed (FIG. 4).

[6] = Plasma protein binding, rat; type: in vitro ADME; details: read-out: Plasma protein binding (h/r/m, %): r (converted)
Solubility = type: physicochemical; details: aqueous buffer; at pH 7.4
hERG = hERG (Homo sapiens, UniProt Q12809); experiment: hERG IC50
Sequence of hERG (Q12809 whole entry): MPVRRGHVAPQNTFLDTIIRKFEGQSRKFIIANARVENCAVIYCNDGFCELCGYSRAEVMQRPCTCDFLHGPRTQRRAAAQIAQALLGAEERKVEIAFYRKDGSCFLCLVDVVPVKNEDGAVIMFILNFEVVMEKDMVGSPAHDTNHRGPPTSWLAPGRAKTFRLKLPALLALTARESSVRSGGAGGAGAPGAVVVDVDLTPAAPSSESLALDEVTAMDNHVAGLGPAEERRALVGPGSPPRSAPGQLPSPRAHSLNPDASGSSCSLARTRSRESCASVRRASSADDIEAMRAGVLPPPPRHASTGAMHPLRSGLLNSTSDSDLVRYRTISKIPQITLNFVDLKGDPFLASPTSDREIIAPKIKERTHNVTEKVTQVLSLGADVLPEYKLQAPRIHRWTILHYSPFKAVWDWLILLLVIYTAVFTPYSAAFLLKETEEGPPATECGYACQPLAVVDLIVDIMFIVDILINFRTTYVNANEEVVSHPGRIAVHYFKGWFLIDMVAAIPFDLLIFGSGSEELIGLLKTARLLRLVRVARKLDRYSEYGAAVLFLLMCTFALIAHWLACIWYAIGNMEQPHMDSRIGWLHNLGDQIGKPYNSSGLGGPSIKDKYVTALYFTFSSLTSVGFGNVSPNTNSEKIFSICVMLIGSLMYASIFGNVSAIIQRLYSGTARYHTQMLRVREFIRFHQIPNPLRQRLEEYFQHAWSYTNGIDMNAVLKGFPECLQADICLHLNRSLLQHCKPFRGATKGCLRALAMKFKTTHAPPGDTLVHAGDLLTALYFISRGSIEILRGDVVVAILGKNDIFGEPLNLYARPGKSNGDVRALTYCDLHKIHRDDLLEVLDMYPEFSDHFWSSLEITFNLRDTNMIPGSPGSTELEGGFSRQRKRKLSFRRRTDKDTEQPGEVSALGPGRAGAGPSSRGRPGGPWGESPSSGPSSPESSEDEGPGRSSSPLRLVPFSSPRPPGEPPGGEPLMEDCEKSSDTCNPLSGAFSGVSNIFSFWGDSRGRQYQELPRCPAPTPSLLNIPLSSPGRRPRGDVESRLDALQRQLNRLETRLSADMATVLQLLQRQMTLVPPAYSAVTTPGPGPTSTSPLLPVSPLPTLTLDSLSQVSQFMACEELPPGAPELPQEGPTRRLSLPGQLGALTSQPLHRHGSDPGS

[7] = i.v. and p.o. exposure study, mouse; type: in vivo
Procedure: as §1

[8] = liver/plasma, po, read-out: liver/plasma ratio
[9] = plasma, iv, read-out: Plasma T1/2 (converted)

CCN(CC)C/C=C\c1cc(F)ccc1S(=O)(=O)Nc1ccc2c(c1C(=O)O)OC[C@@H]1C[C@H]21 (single isomer, unassigned) [Example 12]
CEREP screen, inhibition (72 receptors and enzymes): <35% inhibition at 10 μM
IC50 (MetAP1): 50000 nM
fraction unbound [1]: 0.228
clearance ([2]; iv): 0.84 L/h/kg
half-life ([2]; iv, read-out: Plasma T1/2 (converted)): 3.6 h
Vd ([2]; iv, read-out: Vss): 1.3 L/kg
AUC ([2]; po): 0.711 µg·h/mL
bioavailability ([2]; po): 20%
IC50 (recombinant human MetAP2): 25 nM
IC50 (CYP (isoform not given)): > 10 µM
Kp [3, 8]: 39
clearance ([3]; plasma, iv): 3.24 L/h/kg
half-life [3, 9]: 1.2 h
Vd ([3]; plasma, iv, read-out: Vss): 3.4 L/kg
AUC ([3]; plasma, po): 0.356 µg·h/mL
bioavailability ([3]; plasma, po): 22%
fraction unbound [4]: > 0.3
CYP3A4 signal with pre-incubation (CYP3A4): *CYP3A4 signal observed with pre-incubation
EC50 (HT1080): 0.008 µM
Expression of genes implicated in pathogenesis of fatty liver and fibrosis (liver mRNA microarray) ([5]; 3 mg/kg/bid×10 days, DIO obese mice, FIG. 6): favorably regulated
Tissue biomarkers in peri-renal fat, mesenteric fat and the liver ([5]; DIO C57BL6 mice, varying doses, FIG. 1): primarily targets the liver
Liver weight ([5]; FIG. 5): reduction
Mesenteric adipose tissue weight ([5]; FIG. 5): reduction
Change in bodyweight after 10 days ([5]; obese mice, increasing doses over 10 days, vs vehicle, FIG. 2): marked decrease in body weight
Blood cholesterol ([5]; obese mice, vs vehicle, FIG. 3): marked lowering
Blood glucose ([5]; obese mice, vs vehicle, FIG. 3): marked lowering
Plasma insulin ([5]; once or twice a day administration vs vehicle, FIG. 4): Decrease
fraction unbound [6]: 0.189
solubility (Solubility): ~0.1 mg/mL (≈ 211 µM)
AMES (AMES): negative
IC50 (hERG): > 33 µM
Kp [7, 8]: 38
clearance ([7]; plasma, iv): 7.56 L/h/kg
half-life [7, 9]: 0.9 h
Vd ([7]; plasma, iv, read-out: Vss): 3.1 L/kg
AUC ([7]; plasma, po): 0.497 µg·h/mL
bioavailability ([7]; plasma, po): 53%
